Measured values from patent USRE39591E1, “6-O-substituted ketolides having antibacterial activity” (Abbott Laboratories, priority 1996, dated 2007).

System: up to 32 different microorganisms
Experiment: in vitro antibacterial activity (MIC), agar dilution on Brain Heart Infusion (BHI) agar with Steers replicator
Format: cell-based
Settings: unit assumed
In short: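 Erythromycin A served as the same-class reference for test-to-test comparability. Test compound was tested over twelve successive dilutions in BHI agar; plates were incubated 20 to 24 hours at 35°-37° C, with MIC taken as the lowest concentration showing no growth, slight haze, or sparse colonies.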

SMILES	MIC (organism code AA) [µg/mL]	MIC (organism code BB) [µg/mL]	MIC (organism code CC) [µg/mL]	MIC (organism code DD) [µg/mL]	MIC (organism code EE) [µg/mL]	MIC (organism code FF) [µg/mL]	MIC (organism code GG) [µg/mL]	MIC (organism code HH) [µg/mL]	MIC (organism code II) [µg/mL]	MIC (organism code JJ) [µg/mL]	MIC (organism code KK) [µg/mL]	MIC (organism code LL) [µg/mL]	MIC (organism code MM) [µg/mL]	MIC (organism code NN) [µg/mL]	MIC (organism code OO) [µg/mL]	MIC (organism code PP) [µg/mL]	MIC (organism code QQ) [µg/mL]	MIC (organism code RR) [µg/mL]	MIC (organism code SS) [µg/mL]	MIC (organism code TT) [µg/mL]	other results
CCC1OC(=O)C(C)C(=O)C(C)C(OC2OC(C)CC(N(C)C)C2O)C(C)(OCC2CC2c2cnc3ccccc3c2)CC(C)C(=O)C(C)C2NC(=O)OC12C (stereo not drawn) [Example 243, Compound of Formula (IX): L is CO, T is NH, R is —CH2(2-(3-quinolyl)cyclopropyl)]	0.05	0.05	> 100	0.05	0.1	0.05	> 100	0.1	0.02	0.02	0.02	0.02	6.2	0.1	0.02	0.02	50	0.2	50	> 100	MIC (organism code UU): 0.39 µg/mL; MIC (organism code VV): 0.05 µg/mL; MIC (organism code WW): 4 µg/mL; MIC (organism code XX): 0.03 µg/mL; MIC (organism code YY): 0.03 µg/mL; MIC (organism code ZZ): 128 µg/mL; MIC (organism code ZZA): 0.25 µg/mL
CCC(=O)OC1C(OC2C(C)C(=O)C(C)C(=O)OC(CC)C3(C)OC(=O)NC3C(C)C(=O)C(C)CC2(C)OCC=Cc2cnc3ccccc3c2)OC(C)CC1N(C)C (stereo not drawn) [Example 244, Compound of Formula (III): R^c is propanoyl, L is CO, T is NH, R is —CH2CH═CH(3-quinolyl)]	0.1	0.2	> 100	0.2	0.2	0.1	> 100	0.2	0.05	0.01	≤ 0.005	0.02	1.56	0.2	0.02	0.2	50	0.1	25	> 100	MIC (organism code UU): 0.78 µg/mL; MIC (organism code VV): 0.02 µg/mL; MIC (organism code WW): 2 µg/mL; MIC (organism code XX): 0.03 µg/mL; MIC (organism code YY): 0.03 µg/mL; MIC (organism code ZZ): 64 µg/mL; MIC (organism code ZZA): 0.5 µg/mL
C#CCOC1(C)CC(C)C(=O)C(C)C2NC(=O)OC2(C)C(CC)OC(=O)C(C)C(=O)C(C)C1OC1OC(C)CC(N(C)C)C1O (stereo not drawn) [Example 246, Compound of Formula (IX): L is CO, T is NH, R is —CH2CH≡C—H]	0.78	0.78	> 100	0.78	0.78	0.78	> 100	0.78	0.2	0.1	0.2	0.2	> 100	0.39	0.2	0.78	> 100	0.78	> 100	> 100	MIC (organism code UU): 50 µg/mL; MIC (organism code VV): 0.78 µg/mL; MIC (organism code WW): 16 µg/mL; MIC (organism code XX): 0.25 µg/mL; MIC (organism code YY): 0.125 µg/mL; MIC (organism code ZZ): > 128 µg/mL; MIC (organism code ZZA): 0.5 µg/mL
CCC1OC(=O)C(C)C(=O)C(C)C(OC2OC(C)CC(N(C)C)C2O)C(C)(OCC#Cc2cnc3ccccc3c2)CC(C)C(=O)C(C)C2NC(=O)OC12C (stereo not drawn) [Example 247, Compound of Formula (IX): L is CO, T is NH, R is —CH2—C≡C-(3-quinolyl)]	0.05	0.05	> 100	0.05	0.05	0.05	> 100	0.05	0.02	≤ 0.005	0.01	0.01	0.39	0.1	0.01	0.02	25	0.2	25	> 100	MIC (organism code UU): 0.39 µg/mL; MIC (organism code VV): 0.01 µg/mL; MIC (organism code WW): 1 µg/mL; MIC (organism code XX): ≤ 0.004 µg/mL; MIC (organism code YY): ≤ 0.004 µg/mL; MIC (organism code ZZ): 4 µg/mL; MIC (organism code ZZA): 0.25 µg/mL
